Data reported in the NIST ThermoML archive (doi:10.1016/j.jct.2015.08.010).
Numbers after ± are expanded uncertainties.

Assay: xn = mol fraction of the nth substance listed
Details: 100 kPa, Liquid; for viscosity: Falling or rolling sphere viscometry; for mass density: Vibrating tube method

C1CCC2=NCCC[NH+]2CC1.c1c[n-]cn1 [1,8-diazabicyclo[5.4.0]undec-7-enium imidazolide] + O
Details | mass density, 293.15 K [kg/m3] | mass density, 298.15 K [kg/m3] | mass density, 303.15 K [kg/m3] | mass density, 308.15 K [kg/m3] | mass density, 313.15 K [kg/m3] | viscosity, 293.15 K [mPa·s] | viscosity, 298.15 K [mPa·s] | viscosity, 303.15 K [mPa·s] | viscosity, 308.15 K [mPa·s] | viscosity, 313.15 K [mPa·s]
x1 = 0.0298 | 1026.99 ± 4.2 | 1024.52 ± 4.2 | 1021.91 ± 4.1 | 1019.17 ± 4.1 | 1016.33 ± 4.1 | 2.845 ± 0.12 | 2.428 ± 0.1 | 2.096 ± 0.086 | 1.835 ± 0.072 | 1.614 ± 0.06
x1 = 0.0698 | 1048.57 ± 4.2 | 1045.19 ± 4.2 | 1041.75 ± 4.2 | 1038.24 ± 4.2 | 1034.66 ± 4.2 | 8.167 ± 0.24 | 6.74 ± 0.19 | 5.761 ± 0.16 | 4.854 ± 0.13 | 4.071 ± 0.11
x1 = 0.0998 | 1057.33 ± 4.2 | 1053.65 ± 4.2 | 1050.01 ± 4.2 | 1046.13 ± 4.2 | 1042.33 ± 4.2 | 14.13 ± 0.38 | 11.17 ± 0.29 | 9.019 ± 0.23 | 7.406 ± 0.18 | 6.217 ± 0.15
x1 = 0.1875 | 1067.15 ± 4.3 | 1063.22 ± 4.3 | 1059.26 ± 4.2 | 1055.28 ± 4.2 | 1051.28 ± 4.2 | 34.98 ± 0.8 | 25.84 ± 0.59 | 19.66 ± 0.45 | 15.37 ± 0.35 | 12.31 ± 0.28
x1 = 0.2994 | 1067.1 ± 4.3 | 1063.15 ± 4.3 | 1059.2 ± 4.2 | 1055.23 ± 4.2 | 1051.26 ± 4.2 | 60.57 ± 1.3 | 42.65 ± 0.97 | 30.99 ± 0.7 | 23.32 ± 0.52 | 18.12 ± 0.41
x1 = 0.444 | 1063.55 ± 4.3 | 1059.63 ± 4.2 | 1055.71 ± 4.2 | 1051.79 ± 4.2 | 1047.79 ± 4.2 | 72.41 ± 1.7 | 51.28 ± 1.1 | 37.8 ± 0.85 | 28.37 ± 0.64 | 21.76 ± 0.5
x1 = 0.5989 | 1059.62 ± 4.3 | 1055.73 ± 4.2 | 1051.85 ± 4.2 | 1047.97 ± 4.2 | 1044.1 ± 4.2 | 69.49 ± 1.7 | 49.75 ± 1.2 | 36.33 ± 0.84 | 27.13 ± 0.62 | 20.87 ± 0.48
x1 = 0.7516 | 1056.72 ± 4.3 | 1052.85 ± 4.2 | 1048.97 ± 4.2 | 1045.08 ± 4.2 | 1041.21 ± 4.2 | 63.94 ± 1.5 | 44.98 ± 1.1 | 32.9 ± 0.77 | 24.83 ± 0.58 | 19.33 ± 0.45
x1 = 0.8728 | 1055.11 ± 4.3 | 1051.25 ± 4.3 | 1047.41 ± 4.2 | 1043.56 ± 4.2 | 1039.73 ± 4.2 | 55.45 ± 1.3 | 39.57 ± 0.95 | 29.31 ± 0.69 | 22.6 ± 0.53 | 17.88 ± 0.42
x1 = 1 | 1053.63 ± 4.3 | 1049.78 ± 4.3 | 1045.94 ± 4.3 | 1042.11 ± 4.2 | 1038.28 ± 4.2 | 47.82 ± 1.2 | 34.94 ± 0.85 | 26.36 ± 0.64 | 20.5 ± 0.49 | 16.28 ± 0.39
